The record followed here is patent US7563813B2, “Iminothiazolidinone derivatives as SFRP-1 antagonists” (Wyeth, priority 2005, dated 2009).

The fold induction is the ratio of treated to control signal.

This data set deals with T1, hSFRP-1 (Homo sapiens, UniProt Q8N474).
T1 construct: expressed in transfected cells; host or cells: U2OS osteosarcoma cells (ATCC, HTB 96), transient co-transfection with Wnt 3, Wnt3A or Wnt 1, 16x TCF-tk-Luciferase reporter and CMV-beta-gal
T1 sequence (Q8N474 32-314): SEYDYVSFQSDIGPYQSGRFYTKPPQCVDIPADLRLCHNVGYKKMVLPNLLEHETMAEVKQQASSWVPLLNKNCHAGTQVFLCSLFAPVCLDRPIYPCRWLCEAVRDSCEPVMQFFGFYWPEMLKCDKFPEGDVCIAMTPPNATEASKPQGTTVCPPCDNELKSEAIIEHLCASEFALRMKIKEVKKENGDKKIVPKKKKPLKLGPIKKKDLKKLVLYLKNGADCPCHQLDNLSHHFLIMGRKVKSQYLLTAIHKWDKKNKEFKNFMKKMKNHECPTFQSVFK
Put plainly: Cell-Based Assay for In Vitro Measurement of SFRP-1/SARP2 Antagonist Activity (U2OS cells, 16x TCF-tk-Luciferase reporter, Wnt + hSFRP-1 co-transfection). The conditions noted are these: initial single dose screening at 10 μM; for Ratio: ratio not defined. How it is done:
Cell-Based Assay for In Vitro Measurement of SFRP-1/SARP2 Antagonist Activity
The following cell-based assay can be used to identify inhibitors of SFRP-1.
The osteosarcoma cell line, U2OS (ATCC, HTB 96), was passaged twice a week with growth medium (McCoy's SA medium containing 10% (v/v) fetal calf serum, 2 mM GlutaMAX-1, and 1% (v/v) Penicillin-Streptomycin). The cells were maintained in vented flasks at 37° C. inside a 5% CO2/95% humidified air incubator. One day prior to transfection, the cells were plated with growth medium at 25,000 cells/well into 96-well plates and incubated at 37° C. overnight.
The growth medium was removed, and the cells were washed once with OPTIMEM I (Gibco-BRL) medium (100 μl/well) to remove the serum and antibiotics. The wash medium was removed, and the cells were re-fed with OPTI-MEM I medium (100 μl/well). For each well of cells to be transfected, the following DNA's were diluted together in 25 μl OPTI-MEM I medium: 0.1 μg 16× TCF-tk-Luciferase reporter, 0.02 μg Wnt 3, Wnt3A, Wnt 1 or empty vector (Upstate Biotechnology), 0.075 μg hSFRP-1 or empty vector (pcDNA3.1, Invitrogen), and 0.025 μg CMV-®gal (Clonetech). For each well of cells to be transfected, 1 μl of Lipofectamine 2000 reagent (Invitrogen) was diluted in 25 μl OPTI-MEM I medium and incubated at room temperature for 5 minutes. The diluted DNA's were then combined with the diluted Lipofectamine 2000 (LF2000), and the mixture was incubated at room temperature for 20 minutes. Fifty μl of the DNA-LF 2000 mixture was added to each well, and the plate(s) were incubated at 37° C. in a 5% CO2/95% humidified air incubator for 4 hours. The cells were washed once with 150 μl/well of experimental medium (phenol red-free RPMI Medium 1640 containing 2% fetal bovine serum, 2 mM GlutaMAX-1, and 1% Penicillin-Streptomycin). Finally, the cells were treated overnight at 37° C. with 200 μl/well of experimental medium containing either vehicle (typically DMSO) or diluted compound in replicates of 8 wells/compound.
Initial single dose screening of test compounds was done at 10 μM.
Dose-response experiments were initially performed with the compounds in log increases from 1-10,000 nM. From these dose-response curves, EC50 values were generated.
After treatment, the cells were washed twice with 150 μl/well of PBS without calcium or magnesium and were lysed with 50 μl/well of 1× cell culture lysis reagent (Promega Corporation) on a shaker at room temperature for 30 minutes. Thirty μl aliquots of the cell lysates were transferred to 96-well luminometer plates, and luciferase activity was measured in a MicroLumat PLUS luminometer (EG&G Berthold), or a Victor (PerkinElmer Life Sciences) using […] of luciferase substrate (Promega Corporation). Following the injection of substrate, luciferase activity was measured for 10 seconds after a 1.6 second delay. Similarly, 10 μl aliquots of the cell lysates were transferred to separate 96-well luminometer plates, and 50 μl of Galacton chemiluminescent substrate (Tropix) was added to each well. The plates were covered and incubated on a rotary shaker at room temperature for one hour. ®gal activity was measured in a MicroLumat PLUS luminometer or Victor using 100 μl/well of Light Emission Accelerator (Tropix). Following the injection of the accelerator, ®gal activity was measured for 10 seconds after a 1.6 second delay. The luciferase and ®gal activity data were transferred from the luminometer to a PC and analyzed using the SAS/Excel program. After the luciferase activity was normalized to ®gal, the SAS/Excel program was used to determine the mean and standard deviation of each treatment, to analyze the data for statistical significance, and to determine EC50 values.
As an alternative to co-transfection in a 96 well plate, the U2OS cells were transfected in T225 flasks and the transfected cells were frozen. The frozen cells were thawed and plated on a 96 well plate and the assay was carried out as detailed above. […]

The mark [1] stands for this setting: luciferase reporter activity, fold induction over SFRP-1 control.

For `CCOC(=O)c1c(NC(=O)CC2SC(=N)NC2=O)sc(Br)c1CNc1ccc(F)cc1` (stereo not shown) [Example 62, ethyl 5-bromo-4-{[(4-fluorophenyl)amino]methyl}-2-{[(2-imino-4-oxo-1,3-thiazolidin-5-yl)acetyl]amino}thiophene-3-carboxylate], the Ratio amounted to 2.2. The fold induction at 10 µM under setting [1] turned out to be 2.

On to `CCOC(=O)c1ccccc1NC(=O)CC1SC(=N)NC1=O` (stereo not shown) [Example 51, ethyl 2-{[(2-imino-4-oxo-1,3-thiazolidin-5-yl)acetyl]amino}benzoate], for which the Ratio is 1.1. The fold induction at 10 µM under setting [1] came to 1.1.

Turning to `CCOC(=O)c1c(-c2ccc(F)cc2)csc1NC(=O)CC1SC(=N)NC1=O` (stereo not shown) [Example 47, ethyl 4-(4-fluorophenyl)-2-{[(2-imino-4-oxo-1,3-thiazolidin-5-yl)acetyl]amino}thiophene-3-carboxylate], the Ratio stood at 1.0. The fold induction at 10 µM under setting [1] came to 1.1.

Take `N=C1NC(=O)C(CC(=O)NCc2ccccc2)S1` (stereo not shown) [Example 18, N-benzyl-2-(2-imino-4-oxo-1,3-thiazolidin-5-yl)acetamide]: the Ratio is given as 1.1. Further, under setting [1], the fold induction at 10 µM was determined as 1.2.

Turning to `N=C1NC(=O)C(CC(=O)Nc2ccc(Cl)c(Cl)c2)S1` (stereo not shown) [Example 6, N-(3,4-dichlorophenyl)-2-(2-imino-4-oxo-1,3-thiazolidin-5-yl)acetamide], the Ratio was found to be 1.7. Also, under setting [1], the fold induction at 10 µM came out at 1.7.

Regarding `N=C1NC(=O)C(CC(=O)Nc2ccccc2)S1` (stereo not shown) [Example 17, 2-(2-imino-4-oxo-1,3-thiazolidin-5-yl)-N-phenylacetamide], the Ratio came out at 1.0. Also, the fold induction at 10 µM under setting [1] worked out at 1.3.

With `CCOC(=O)c1c(NC(=O)CC2SC(=N)NC2=O)sc(-c2ccccc2)c1C` (stereo not shown) [Example 58, ethyl 2-{[(2-imino-4-oxo-1,3-thiazolidin-5-yl)acetyl]amino}-4-methyl-5-phenylthiophene-3-carboxylate], the Ratio stood at 0.7. Further, under setting [1], the fold induction at 10 µM was found to be 0.7.

For the compound `COC(=O)c1ccsc1NC(=O)CC1SC(=N)NC1=O` (stereo not shown) [Example 34, methyl 2-{[(2-imino-4-oxo-1,3-thiazolidin-5-yl)acetyl]amino}thiophene-3-carboxylate], the Ratio was 1.3. Further, the fold induction at 10 µM under setting [1] came to 1.2.

For the compound `COC(=O)c1c(NC(=O)CC2SC(=N)NC2=O)sc2c1CCC(OC)C2` (stereo not shown) [Example 37, methyl 2-{[(2-imino-4-oxo-1,3-thiazolidin-5-yl)acetyl]amino}-6-methoxy-4,5,6,7-tetrahydro-1-benzothiophene-3-carboxylate], the Ratio was found to be 1.7. The fold induction at 10 µM under setting [1] amounted to 1.5.

In the case of `N#Cc1c(NC(=O)CC2SC(=N)NC2=O)sc2c1CCCC2` (stereo not shown) [Example 49, N-(3-cyano-4,5,6,7-tetrahydro-1-benzothien-2-yl)-2-(2-imino-4-oxo-1,3-thiazolidin-5-yl)acetamide], the Ratio was found to be 1.2. Further, the fold induction at 10 µM under setting [1] worked out at 1.6.

As to `N=C1NC(=O)C(CC(=O)NCc2cccc(Cl)c2)S1` (stereo not shown) [Example 22, N-(3-chlorobenzyl)-2-(2-imino-4-oxo-1,3-thiazolidin-5-yl)acetamide], the Ratio was found to be 1.0. Besides, the fold induction at 10 µM under setting [1] turned out to be 1.2.

For the compound `N=C1NC(=O)C(CC(=O)Nc2cccc(C(N)=O)c2)S1` (stereo not shown) [Example 24, 3-{[(2-imino-4-oxo-1,3-thiazolidin-5-yl)acetyl]amino}benzamide], the Ratio came out at 1.0. The fold induction at 10 µM under setting [1] came to 1.2.

With `N#Cc1cccc(NC(=O)CC2SC(=N)NC2=O)c1` (stereo not shown) [Example 4, N-(3-cyanophenyl)-2-(2-imino-4-oxo-1,3-thiazolidin-5-yl)acetamide], the Ratio is reported as 1.2. The fold induction at 10 µM under setting [1] stood at 1.3.

Regarding `CCOC(=O)c1c(NC(=O)CC2SC(N)=NC2=O)sc(C)c1C` (stereo not shown) [Example 1, Ethyl 2-{[(2-amino-4-oxo-4,5-dihydro-1,3-thiazol-5-yl)acetyl]amino}-4,5-dimethylthiophene-3-carboxylate], the Ratio is 2.5. Also, the fold induction at 10 µM under setting [1] was found to be 2.5.

Consider `N=C1NC(=O)C(CC(=O)NCc2ccccc2C(F)(F)F)S1` (stereo not shown) [Example 20, 2-(2-imino-4-oxo-1,3-thiazolidin-5-yl)-N-[2-(trifluoromethyl)benzyl]acetamide], for which the Ratio is recorded as 1.1. For the same compound, under setting [1], the fold induction at 10 µM was determined as 1.2.

As for `CCOC(=O)c1c(NC(=O)CC2SC(=N)NC2=O)sc(Br)c1CN(C)c1ccc(Cl)cc1` (stereo not shown) [Example 61, ethyl 5-bromo-4-{[(4-chlorophenyl)(methyl)amino]methyl}-2-{[(2-imino-4-oxo-1,3-thiazolidin-5-yl)acetyl]amino}thiophene-3-carboxylate], the Ratio was 1.0. Under setting [1], the fold induction at 10 µM turned out to be 0.7.

For the compound `N=C1NC(=O)C(CC(=O)Nc2cccc([N+](=O)[O-])c2)S1` (stereo not shown) [Example 29, 2-(2-imino-4-oxo-1,3-thiazolidin-5-yl)-N-(3-nitrophenyl)acetamide], the Ratio was found to be 1.4. Also, the fold induction at 10 µM under setting [1] turned out to be 1.7.

In the case of `CCOC(=O)c1c(-c2ccccc2)csc1NC(=O)CC1SC(=N)NC1=O` (stereo not shown) [Example 45, ethyl 2-{[(2-imino-4-oxo-1,3-thiazolidin-5-yl)acetyl]amino}-4-phenyIthiophene-3-carboxylate], the Ratio turned out to be 1.0. For the same compound, the “Fold induction with SFRP-1” value under setting [1] was 1.1 fold.

For the compound `COC(=O)c1cc(OC)c(OC)cc1NC(=O)CC1SC(=N)NC1=O` (stereo not shown) [Example 53, methyl 2-{[(2-imino-4-oxo-1,3-thiazolidin-5-yl)acetyl]amino}-4,5-dimethoxybenzoate], the Ratio was determined as 1.0. The fold induction at 10 µM under setting [1] amounted to 1.

On to `CC(=O)c1cccc(NC(=O)CC2SC(=N)NC2=O)c1` (stereo not shown) [Example 30, N-(3-acetylphenyl)-2-(2-imino-4-oxo-1,3-thiazolidin-5-yl)acetamide], for which the Ratio was determined as 1.1. For the same compound, the fold induction at 10 µM under setting [1] was determined as 1.2.

As for `N=C1NC(=O)C(CC(=O)Nc2ccc(Cl)cc2Cl)S1` (stereo not shown) [Example 7, N-(2,4-dichlorophenyl)-2-(2-imino-4-oxo-1,3-thiazolidin-5-yl)acetamide], the Ratio amounted to 1.0. Moreover, under setting [1], the fold induction at 10 µM came to 1.

As to `N=C1NC(=O)C(CC(=O)NCc2ccc(Cl)cc2)S1` (stereo not shown) [Example 21, N-(4-chlorobenzyl)-2-(2-imino-4-oxo-1,3-thiazolidin-5-yl)acetamide], the Ratio is 1.0. Further, under setting [1], the fold induction at 10 µM was found to be 1.2.

Take `CCOC(=O)c1c(C)csc1NC(=O)CC1SC(=N)NC1=O` (stereo not shown) [Example 16, ethyl 2-{[(2-imino-4-oxo-1,3-thiazolidin-5-yl)acetyl]amino}-4-methylthiophene-3-carboxylate]: the Ratio was 1.9. For the same compound, the fold induction at 10 µM under setting [1] is 2.
